From ChEMBL document CHEMBL1201862, “PubChem BioAssay data set” (2004)
The source made the active and inactive calls.

How the values were obtained:
Cytochrome P450 2C9 = Cytochrome P450 2C9 (Homo sapiens, UniProt P11712)
Cytochrome P450 1A2 = biological target: T1, Cytochrome P450 1A2 (Homo sapiens, UniProt P05177);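 further: PubChem cytochrome P450 panel assay, CYP1A2 panel member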
T1 sequence (P05177 whole entry): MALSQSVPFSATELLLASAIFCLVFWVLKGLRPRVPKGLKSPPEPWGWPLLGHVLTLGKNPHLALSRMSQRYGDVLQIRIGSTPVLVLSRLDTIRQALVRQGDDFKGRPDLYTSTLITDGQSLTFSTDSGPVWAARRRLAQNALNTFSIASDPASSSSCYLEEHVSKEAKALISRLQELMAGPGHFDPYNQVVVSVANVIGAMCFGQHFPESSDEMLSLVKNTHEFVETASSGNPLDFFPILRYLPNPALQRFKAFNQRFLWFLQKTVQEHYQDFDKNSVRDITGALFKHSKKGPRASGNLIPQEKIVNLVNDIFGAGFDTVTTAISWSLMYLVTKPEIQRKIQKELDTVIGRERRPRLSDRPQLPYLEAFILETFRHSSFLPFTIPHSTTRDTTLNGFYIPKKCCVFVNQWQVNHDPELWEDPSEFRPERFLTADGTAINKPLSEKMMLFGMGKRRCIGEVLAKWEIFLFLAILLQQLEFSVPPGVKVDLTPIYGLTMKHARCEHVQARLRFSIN

Fatty acid synthase [1] = biological target: T2, Fatty acid synthase (Homo sapiens, UniProt P49327); assay: FAS thioesterase domain inhibitors, dose response, biochemical, endpoint fluorescence intensity, uHTS hits (AID 624327); assay type: functional;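 further: fluorescence from hydrolysis of an O-methyl fluorescein acyl ester substrate by the enzyme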
Fatty acid synthase [2] = biological target: T2, Fatty acid synthase; assay: FAS thioesterase domain inhibitors, dose response, biochemical, kinetic fluorescence intensity (AID 624326); assay type: functional;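 further: rate of fluorescence rise from hydrolysis of a fluorogenic O-methyl fluorescein ester substrate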
cells = assay type: functional
P388 = assay: cells; assay type: functional; conditions: Mus musculus
P388/ADR = assay: cells; assay type: functional; conditions: Mus musculus
SN12K1 = assay: cells; assay type: functional; conditions: Homo sapiens
Cytochrome P450 3A4 = Cytochrome P450 3A4 (Homo sapiens, UniProt P08684);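 further: CYP3A4 tested as one member of a cytochrome P450 panel screen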
Aminopeptidase N = biological target: T3, Aminopeptidase N (Plasmodium falciparum FcB1/Columbia, UniProt O96935); assay: P. falciparum M1AAP inhibitors, biochemical, fluorogenic H-Leu-NHMec substrate, 1536-well (AID 1445); parameters: species or system Plasmodium falciparum 3D7, 3D7
T3 sequence (O96935 whole entry): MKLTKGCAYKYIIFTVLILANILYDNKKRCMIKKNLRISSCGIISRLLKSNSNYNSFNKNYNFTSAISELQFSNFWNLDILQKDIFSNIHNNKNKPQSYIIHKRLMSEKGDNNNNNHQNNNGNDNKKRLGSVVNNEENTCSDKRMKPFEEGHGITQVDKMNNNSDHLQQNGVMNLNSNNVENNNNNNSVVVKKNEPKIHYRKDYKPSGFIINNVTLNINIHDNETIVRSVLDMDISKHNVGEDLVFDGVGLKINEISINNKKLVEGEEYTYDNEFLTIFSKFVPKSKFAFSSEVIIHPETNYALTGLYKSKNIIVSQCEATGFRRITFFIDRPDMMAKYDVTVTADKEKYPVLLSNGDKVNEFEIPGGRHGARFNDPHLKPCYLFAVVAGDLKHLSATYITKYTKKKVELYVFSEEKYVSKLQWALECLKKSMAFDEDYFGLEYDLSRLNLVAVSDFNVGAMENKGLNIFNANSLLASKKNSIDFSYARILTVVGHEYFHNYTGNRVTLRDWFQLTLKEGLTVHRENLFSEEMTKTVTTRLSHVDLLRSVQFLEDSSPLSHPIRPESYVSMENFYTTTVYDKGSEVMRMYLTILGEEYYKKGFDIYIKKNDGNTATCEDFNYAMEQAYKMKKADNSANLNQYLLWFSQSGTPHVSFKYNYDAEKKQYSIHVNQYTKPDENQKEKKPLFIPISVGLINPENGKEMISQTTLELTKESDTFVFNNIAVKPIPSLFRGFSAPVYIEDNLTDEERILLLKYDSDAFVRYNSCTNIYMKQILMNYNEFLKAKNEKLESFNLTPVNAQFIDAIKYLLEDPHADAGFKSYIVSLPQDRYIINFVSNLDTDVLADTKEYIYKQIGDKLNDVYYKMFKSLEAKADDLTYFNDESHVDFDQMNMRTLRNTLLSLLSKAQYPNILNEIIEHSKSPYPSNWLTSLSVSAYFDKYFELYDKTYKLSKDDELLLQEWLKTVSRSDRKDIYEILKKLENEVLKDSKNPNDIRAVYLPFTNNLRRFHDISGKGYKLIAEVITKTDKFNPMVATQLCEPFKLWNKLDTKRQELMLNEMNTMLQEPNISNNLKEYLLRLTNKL

[3] = inhibitors of intracellular T. cruzi replication, confirmation, NIH3T3 host cells, beta-gal luminescence (AID 2044); assay type: functional, cell-based;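 further: intracellular parasites grown in NIH/3T3 mouse fibroblasts as host cells; luminescent beta-galactosidase reporter signal from transgenic T. cruzi replicating inside host cells; inhibitors lower the luminescence signal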
[4] = growth suppression of beta-catenin-knockout colon cells, dose response, cell-based, HCT116, human colon tumor (AID 1045); assay type: functional;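 further: HCT116 colon tumor cells with beta catenin knocked out; cells exposed to compound for 60 hours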
[5] = growth suppression of PTEN-null colon cells, dose response, cell-based, HCT116 PTEN knockout (AID 1047); assay type: functional;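 further: HCT116 colon tumor cells with PTEN knocked out; cells exposed to compound for 60 hours before readout; potency for loss of cell viability measured by luminescence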
[6] = cytotoxicity toward NIH3T3 fibroblasts, dose response, counter-screen, cell-based, ATP luminescence, mouse fibroblasts (AID 2010); assay type: functional;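 further: cells exposed to compound for about 90 hours before reading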
Cytochrome P450 2D6 = Cytochrome P450 2D6 (Homo sapiens, UniProt P10635);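 further: CYP2D6 member of a cytochrome P450 panel assay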
Cytochrome P450 2C19 = Cytochrome P450 2C19 (Homo sapiens, UniProt P33261); assay: Cytochrome panel assay with activity outcomes. Panel member name: p450-cyp2c19 Compounds with AC50 equal or less than 10 uM are considered active; assay type: functional; conditions: read-out: AC50
Genome polyprotein = Genome polyprotein (dengue virus type 2, UniProt P29990); assay: Dengue-2 NS5 methyltransferase inhibitors, primary screen, biochemical, confirmation dose response (AID 588689); assay type: functional
[7] = inhibitors of SNCA 5'UTR-driven reporter translation, confirmation, H4 neuroglioma cells, luminescence (AID 1988); assay type: functional, cell-based
[8] = Luminescence Cell-Based Dose Response HTS to Identify Inhibitors of 5'UTR Stem-Loop Driven Prion Protein mRNA Translation in H4 Neuroglioblastoma Cells. [Related pubchem assays: 1827 (Project Summary), 1813 (Primary HTS)]; assay type: functional
[9] = inhibitors of firefly luciferase expression or activity, dose response, H4 neuroglioma cells, luminescence (AID 1990); assay type: functional, cell-based

T2 sequence (P49327 whole entry, the tested form may be a part): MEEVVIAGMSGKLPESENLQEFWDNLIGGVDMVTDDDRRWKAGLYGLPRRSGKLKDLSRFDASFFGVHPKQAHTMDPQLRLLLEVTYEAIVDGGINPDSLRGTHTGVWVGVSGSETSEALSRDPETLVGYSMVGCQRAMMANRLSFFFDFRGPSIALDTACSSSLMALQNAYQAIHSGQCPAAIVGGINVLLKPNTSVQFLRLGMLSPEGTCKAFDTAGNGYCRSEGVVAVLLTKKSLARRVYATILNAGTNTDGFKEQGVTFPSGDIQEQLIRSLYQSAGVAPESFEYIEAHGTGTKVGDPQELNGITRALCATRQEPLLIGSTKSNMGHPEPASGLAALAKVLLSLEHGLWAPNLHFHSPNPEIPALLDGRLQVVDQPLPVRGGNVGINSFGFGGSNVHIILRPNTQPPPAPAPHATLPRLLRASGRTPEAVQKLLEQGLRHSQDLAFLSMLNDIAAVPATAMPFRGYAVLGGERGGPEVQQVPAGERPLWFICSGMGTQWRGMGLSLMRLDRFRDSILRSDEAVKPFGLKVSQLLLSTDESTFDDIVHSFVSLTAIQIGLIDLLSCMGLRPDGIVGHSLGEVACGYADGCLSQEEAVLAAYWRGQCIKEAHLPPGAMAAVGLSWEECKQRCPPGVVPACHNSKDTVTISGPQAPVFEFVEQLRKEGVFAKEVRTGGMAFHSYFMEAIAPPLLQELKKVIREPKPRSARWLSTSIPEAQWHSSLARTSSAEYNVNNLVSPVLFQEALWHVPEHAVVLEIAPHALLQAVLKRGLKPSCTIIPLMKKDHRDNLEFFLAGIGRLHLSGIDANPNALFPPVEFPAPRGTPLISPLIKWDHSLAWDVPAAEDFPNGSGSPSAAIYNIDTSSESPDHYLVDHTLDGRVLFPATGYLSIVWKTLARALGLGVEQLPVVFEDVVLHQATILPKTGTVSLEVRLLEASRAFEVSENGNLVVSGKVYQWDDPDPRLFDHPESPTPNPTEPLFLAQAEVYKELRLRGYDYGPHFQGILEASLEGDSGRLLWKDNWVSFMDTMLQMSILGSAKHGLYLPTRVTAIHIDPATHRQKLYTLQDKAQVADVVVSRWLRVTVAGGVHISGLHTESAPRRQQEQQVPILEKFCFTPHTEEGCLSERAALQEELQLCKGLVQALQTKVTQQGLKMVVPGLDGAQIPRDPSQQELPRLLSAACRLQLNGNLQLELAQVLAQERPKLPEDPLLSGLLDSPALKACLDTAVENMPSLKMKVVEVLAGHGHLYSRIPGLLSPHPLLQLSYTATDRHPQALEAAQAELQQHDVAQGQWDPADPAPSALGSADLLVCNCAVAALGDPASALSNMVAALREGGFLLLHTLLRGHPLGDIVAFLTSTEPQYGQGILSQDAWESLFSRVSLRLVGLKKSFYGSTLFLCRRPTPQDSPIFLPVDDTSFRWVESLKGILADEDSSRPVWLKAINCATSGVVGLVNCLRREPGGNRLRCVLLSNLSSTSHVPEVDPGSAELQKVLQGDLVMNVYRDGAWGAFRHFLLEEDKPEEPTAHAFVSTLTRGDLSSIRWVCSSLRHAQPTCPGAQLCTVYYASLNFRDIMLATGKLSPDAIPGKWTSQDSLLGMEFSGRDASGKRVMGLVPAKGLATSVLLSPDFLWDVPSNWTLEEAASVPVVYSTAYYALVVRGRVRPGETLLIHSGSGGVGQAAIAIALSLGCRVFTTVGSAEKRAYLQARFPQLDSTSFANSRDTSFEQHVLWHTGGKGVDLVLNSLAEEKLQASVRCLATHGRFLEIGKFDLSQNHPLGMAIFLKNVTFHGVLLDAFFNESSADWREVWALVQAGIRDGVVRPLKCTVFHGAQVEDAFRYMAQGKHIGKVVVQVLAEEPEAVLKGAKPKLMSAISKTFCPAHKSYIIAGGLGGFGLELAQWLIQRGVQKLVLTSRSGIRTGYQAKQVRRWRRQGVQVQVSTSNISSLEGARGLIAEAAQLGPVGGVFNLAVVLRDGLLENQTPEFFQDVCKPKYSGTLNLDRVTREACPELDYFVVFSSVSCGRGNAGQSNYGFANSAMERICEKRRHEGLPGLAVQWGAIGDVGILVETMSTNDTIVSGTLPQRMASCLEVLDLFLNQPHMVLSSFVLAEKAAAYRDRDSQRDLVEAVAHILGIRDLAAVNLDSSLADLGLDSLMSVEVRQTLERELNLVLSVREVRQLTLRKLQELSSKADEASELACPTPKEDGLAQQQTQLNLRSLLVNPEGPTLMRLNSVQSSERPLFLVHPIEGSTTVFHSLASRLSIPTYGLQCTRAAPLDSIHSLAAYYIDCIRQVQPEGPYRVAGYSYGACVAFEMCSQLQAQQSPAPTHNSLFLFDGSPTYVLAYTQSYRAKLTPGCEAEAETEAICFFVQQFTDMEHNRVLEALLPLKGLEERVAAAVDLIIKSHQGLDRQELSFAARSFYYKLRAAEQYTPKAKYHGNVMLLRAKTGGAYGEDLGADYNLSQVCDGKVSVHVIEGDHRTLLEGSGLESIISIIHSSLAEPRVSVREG
Chain of Cytochrome P450 2C9 (P11712 whole entry): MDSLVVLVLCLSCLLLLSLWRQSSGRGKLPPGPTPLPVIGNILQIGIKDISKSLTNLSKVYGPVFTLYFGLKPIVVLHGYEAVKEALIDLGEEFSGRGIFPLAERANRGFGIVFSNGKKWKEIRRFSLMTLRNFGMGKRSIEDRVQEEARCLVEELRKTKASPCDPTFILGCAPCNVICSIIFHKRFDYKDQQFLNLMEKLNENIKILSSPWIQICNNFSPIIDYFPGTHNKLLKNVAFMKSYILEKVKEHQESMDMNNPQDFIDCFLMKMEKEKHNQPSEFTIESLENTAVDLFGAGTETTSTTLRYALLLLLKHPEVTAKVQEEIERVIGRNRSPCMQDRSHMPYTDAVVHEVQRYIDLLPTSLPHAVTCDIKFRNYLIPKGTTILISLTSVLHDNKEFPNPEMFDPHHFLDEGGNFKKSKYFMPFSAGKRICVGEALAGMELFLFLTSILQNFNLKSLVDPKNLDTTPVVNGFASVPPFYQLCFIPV
Chain of Cytochrome P450 2C19 (P33261 whole entry): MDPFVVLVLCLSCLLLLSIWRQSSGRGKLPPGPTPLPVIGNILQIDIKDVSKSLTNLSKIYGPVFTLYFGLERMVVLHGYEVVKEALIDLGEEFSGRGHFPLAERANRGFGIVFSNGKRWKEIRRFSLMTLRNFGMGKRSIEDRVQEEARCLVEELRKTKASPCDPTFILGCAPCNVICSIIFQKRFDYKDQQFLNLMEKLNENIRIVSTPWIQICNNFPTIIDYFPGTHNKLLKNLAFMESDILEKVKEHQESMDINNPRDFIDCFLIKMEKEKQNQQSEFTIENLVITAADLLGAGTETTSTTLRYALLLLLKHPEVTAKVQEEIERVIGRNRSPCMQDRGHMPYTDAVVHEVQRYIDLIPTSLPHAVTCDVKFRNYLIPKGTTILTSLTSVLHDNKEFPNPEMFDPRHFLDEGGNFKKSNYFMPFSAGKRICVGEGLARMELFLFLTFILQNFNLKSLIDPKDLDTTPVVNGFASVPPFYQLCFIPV
Chain of Cytochrome P450 2D6 (P10635 whole entry): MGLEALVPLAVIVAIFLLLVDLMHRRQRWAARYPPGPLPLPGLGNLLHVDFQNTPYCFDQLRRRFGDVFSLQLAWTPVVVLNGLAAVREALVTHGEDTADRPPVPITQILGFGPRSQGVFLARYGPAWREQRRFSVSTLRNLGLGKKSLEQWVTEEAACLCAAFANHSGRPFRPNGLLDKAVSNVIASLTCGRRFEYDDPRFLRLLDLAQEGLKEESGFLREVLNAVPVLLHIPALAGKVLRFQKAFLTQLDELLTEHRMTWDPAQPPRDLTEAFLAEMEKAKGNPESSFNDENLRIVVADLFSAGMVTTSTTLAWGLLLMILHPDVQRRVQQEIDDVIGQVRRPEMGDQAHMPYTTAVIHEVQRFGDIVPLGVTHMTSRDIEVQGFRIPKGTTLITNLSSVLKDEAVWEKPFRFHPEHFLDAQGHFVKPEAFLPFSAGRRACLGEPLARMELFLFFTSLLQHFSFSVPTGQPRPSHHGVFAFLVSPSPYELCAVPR
Chain of Cytochrome P450 3A4 (P08684 whole entry): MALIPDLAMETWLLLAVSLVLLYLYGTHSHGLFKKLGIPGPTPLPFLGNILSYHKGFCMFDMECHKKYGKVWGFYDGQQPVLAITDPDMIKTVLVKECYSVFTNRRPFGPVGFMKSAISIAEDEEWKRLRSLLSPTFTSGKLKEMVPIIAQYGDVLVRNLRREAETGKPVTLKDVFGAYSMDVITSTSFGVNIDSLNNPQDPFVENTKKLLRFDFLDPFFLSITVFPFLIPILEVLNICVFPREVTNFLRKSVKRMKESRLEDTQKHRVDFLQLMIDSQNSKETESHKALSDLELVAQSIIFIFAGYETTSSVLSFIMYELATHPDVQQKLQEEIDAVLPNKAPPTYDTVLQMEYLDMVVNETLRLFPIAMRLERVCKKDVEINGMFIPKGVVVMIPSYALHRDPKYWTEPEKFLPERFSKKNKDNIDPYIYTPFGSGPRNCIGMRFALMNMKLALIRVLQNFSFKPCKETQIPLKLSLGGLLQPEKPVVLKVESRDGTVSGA

Compound: O=C(Cc1ccc(Cl)cc1)NNC(=O)Nc1cccc2ccccc12
- AC50 (Cytochrome P450 2C9): inconclusive
- AC50 (Cytochrome P450 1A2): 2.51 µM (inconclusive)

Compound: CCn1cc(C(=O)NCc2ccc(C)cc2)c(=O)c2cc(S(=O)(=O)N(C)C)ccc21
- IC50 (Fatty acid synthase [1]): 11.4 µM (active)
- IC50 (Fatty acid synthase [2]): 11.1 µM (active)

Compound: COc1cccc2cc(-c3nc4ccccc4[nH]3)c(=O)oc12
- IC50 (cells): < 0.1 µM (active)

Compound: CN(C)c1nc(-c2cccnc2)nc2ccccc12
- AC50 (Cytochrome P450 2C9): inconclusive

Compound: CC(C)=CC(=O)OC1C2C(C)C(=O)OC2C(O)C(C)C2C=CC(=O)C21C (centres undefined)
- GI50 (P388): 0.627 µM (active)
- GI50 (P388/ADR): 0.615 µM (active)
- GI50 (SN12K1): 2.39 µM (inactive)

Compound: COc1ccc(S(=O)(=O)N/N=C/C(=O)O)cc1
- GI50 (P388): 255 µM (inactive)
- GI50 (P388/ADR): 212 µM (inactive)
- GI50 (SN12K1): 360 µM (inactive)

Compound: COC(=O)c1ccccc1NC(=O)c1ccc(Cn2cc(Cl)cn2)o1
- AC50 (Cytochrome P450 2C9): inconclusive
- AC50 (Cytochrome P450 3A4): 10 µM (inconclusive)

Compound: COc1ccccc1CC(=O)O/N=C(\N)Cc1cccc2ccccc12
- AC50 (Cytochrome P450 2C9): inconclusive

Compound: COc1cc(/C=C/C(=O)O)cc(S(=O)(=O)NCc2ccc3c(c2)OCO3)c1OC
- IC50 (Aminopeptidase N): 81.9 µM (active)

Compound: N#Cc1cc2nc(O)c(O)nc2cc1[N+](=O)[O-]
- IC50 (Fatty acid synthase [1]): 19.6 µM (active)
- IC50 (Fatty acid synthase [2]): 14.8 µM (active)

Compound: OC(CNc1ccccc1)COc1ccc(OCC(O)CNc2ccccc2)cc1 (centres undefined)
- EC50 [3]: 3.54 µM (active)
- EC50 [4]: 15 µM (active)
- EC50 [5]: 15.6 µM (active)
- EC50 [6]: > 60 µM (not active)

Compound: CCn1c(SCC(=O)Nc2ncc(C(F)(F)F)cc2Cl)nnc1-c1ccccc1
- IC50 (Fatty acid synthase [1]): 5.96 µM (active)
- IC50 (Fatty acid synthase [2]): 4.08 µM (active)

Compound: Cc1c(CNc2ccc(Cl)c(C(=O)NC(CC(=O)O)C(=O)O)c2)ccc2nc(N)nc(N)c12 (centres undefined)
- GI50 (P388): 0.0339 µM (active)
- GI50 (P388/ADR): 0.049 µM (active)
- GI50 (SN12K1): 0.043 µM (active)

Compound: Cn1cccc1/C=N/NC(=O)c1sc2ccccc2c1Cl
- AC50 (Cytochrome P450 2C9): inconclusive
- AC50 (Cytochrome P450 2D6): 10 µM (inconclusive)

Compound: CCCn1c(-c2ccc[nH]c2=O)nc2cc(C)c(C)cc21
- IC50 (Aminopeptidase N): 23.8 µM (active)

Compound: Cc1ccc(C)c(NC(=O)Cn2nnc(C(=O)Nc3c(C)cccc3C)c2N)c1
- AC50 (Cytochrome P450 2C9): inconclusive
- AC50 (Cytochrome P450 2C19): 17.8 µM (inconclusive)

Compound: CN1OC(=O)N(C)C1c1ccccc1 (centres undefined)
- GI50 (P388): > 100 µM (inactive)
- GI50 (P388/ADR): > 100 µM (inactive)
- GI50 (SN12K1): > 100 µM (inactive)

Compound: COc1cc(C2c3cc4c(cc3[C@@H](Nc3ccc(C#N)cc3)C3COC(=O)[C@H]23)OCO4)cc(OC)c1O (some centres undefined)
- GI50 (P388): 0.00998 µM (active)
- GI50 (P388/ADR): 0.352 µM (active)
- GI50 (SN12K1): 0.0736 µM (active)

Compound: CN1CCN(c2ccc3[nH]c(-c4ccc5[nH]c(-c6ccc(O)cc6)nc5c4)nc3c2)CC1
- GI50 (P388): 7.94 µM (inactive)
- GI50 (P388/ADR): 53.1 µM (inactive)
- GI50 (SN12K1): 27 µM (inactive)

Compound: CSc1ncc(Cl)c(C(=O)C(C#N)c2nc3c(C)cc(C)cc3c(=O)[nH]2)n1 (centres undefined)
- IC50 (Aminopeptidase N): 84.5 µM (active)

Compound: Cc1cccc(C2Nc3ccccc3C(=O)N2NC(=O)c2ccc([N+](=O)[O-])cc2)n1 (centres undefined)
- IC50 (Fatty acid synthase [1]): 10.4 µM (active)
- IC50 (Fatty acid synthase [2]): 12.8 µM (active)

Compound: Cc1cccc(C2C3=C(O)c4ccccc4C3=Nc3nn(-c4ccccc4)c(O)c32)c1 (centres undefined)
- IC50 (Genome polyprotein): 59.4 µM (active)
- IC50 (Aminopeptidase N): 38.3 µM (active)

Compound: CCCc1cc2c(cc1NC(=O)c1ccccc1Cl)OCO2
- AC50 (Cytochrome P450 2C9): inconclusive
- AC50 (Cytochrome P450 2D6): 28.2 µM (inconclusive)

Compound: CC(C)CCCCCCCCCCCCC(=O)NCC(=O)NC1C(C)OC(Nc2ncnc3c2ncn3C)C(O)C1O (centres undefined)
- GI50 (P388): 6.03 µM (inactive)
- GI50 (P388/ADR): > 100 µM (inactive)
- GI50 (SN12K1): 7.66 µM (inactive)

Compound: COc1cccc(NC(=O)c2cc([N+](=O)[O-])ccc2NC(=O)CNCC2CCCO2)c1 (centres undefined)
- IC50 (Fatty acid synthase [1]): 12.3 µM (active)
- IC50 (Fatty acid synthase [2]): 13.1 µM (active)

Compound: CN(C)CCCNc1oc(/C=C/c2ccccc2)nc1C#N
- IC50 (Aminopeptidase N): 45.3 µM (active)

Compound: O=C(/C=C/c1ccccc1Cl)NCCN1CCOCC1
- AC50 (Cytochrome P450 2C9): inconclusive
- AC50 (Cytochrome P450 3A4): 15.8 µM (inconclusive)
- AC50 (Cytochrome P450 2C19): 5.01 µM (inconclusive)

Compound: COc1cccc(/C=C(/C#N)c2ccc(F)cc2)c1OCc1cccc(C(=O)O)c1
- IC50 (Aminopeptidase N): 43.6 µM (active)

Compound: CN(C)C=O.O=C(COc1cccc(Cl)c1)Nc1nc(-c2ccc(S(=O)(=O)N3CCOCC3)cc2)cs1
- IC50 (Fatty acid synthase [1]): 4.49 µM (active)
- IC50 (Fatty acid synthase [2]): 5.53 µM (active)

Compound: O=C(CCc1ccccc1)NNC(=O)C1CCCCC1
- AC50 (Cytochrome P450 2C9): inconclusive

Compound: C/C=C(\C)c1cc(=O)c2c(C)cc3c(c2o1)C(=O)c1c(O)c(C2CC(C)(N(C)C)C(O)C(C)O2)cc(C2CC(N(C)C)C(O)C(C)O2)c1C3=O (centres undefined)
- GI50 (P388): 0.964 µM (active)
- GI50 (P388/ADR): 3.08 µM (inactive)
- GI50 (SN12K1): 1.26 µM (inactive)

Compound: Cc1ccccc1Cn1cc(NC(=O)c2noc(C(C)C)c2[N+](=O)[O-])cn1
- EC50 [7]: > 120 µM (not active)
- EC50 [8]: > 120 µM (not active)
- IC50 (cells): 7.8 µM (active)
- EC50 [9]: > 120 µM (not active)

Compound: COc1ccc(-c2[nH]c(-c3ccc4c(c3)OCO4)nc2-c2ccccc2)cc1
- EC50 [4]: 20.7 µM (active)
- EC50 [5]: 15.9 µM (active)

Compound: CNC(=O)OCc1nc(SC)n(C)c1COC(=O)NC
- GI50 (P388): 75 µM (inactive)
- GI50 (P388/ADR): 147 µM (inactive)
- GI50 (SN12K1): 115 µM (inactive)

Compound: CCOC(=O)CNC(=O)N1c2ccccc2Sc2ccccc21
- IC50 (cells): 1.95 µM (active)
